The text below walks through data of patent US9796733B2, “Imidazo-pyrazine derivatives useful as soluble guanylate cyclase activators” (Merck Sharp & Dohme Corp., priority 2014, dated 2017).

One assay deals with T1, sGC α1/β1 heterodimer (Homo sapiens, UniProt Q02108+Q02153).
T1 construct: expressed in transfected cells; host or cells: CHO-K1 (clone #7, CHO-K1/sGC)
T1 sequence (Q02108 1-690): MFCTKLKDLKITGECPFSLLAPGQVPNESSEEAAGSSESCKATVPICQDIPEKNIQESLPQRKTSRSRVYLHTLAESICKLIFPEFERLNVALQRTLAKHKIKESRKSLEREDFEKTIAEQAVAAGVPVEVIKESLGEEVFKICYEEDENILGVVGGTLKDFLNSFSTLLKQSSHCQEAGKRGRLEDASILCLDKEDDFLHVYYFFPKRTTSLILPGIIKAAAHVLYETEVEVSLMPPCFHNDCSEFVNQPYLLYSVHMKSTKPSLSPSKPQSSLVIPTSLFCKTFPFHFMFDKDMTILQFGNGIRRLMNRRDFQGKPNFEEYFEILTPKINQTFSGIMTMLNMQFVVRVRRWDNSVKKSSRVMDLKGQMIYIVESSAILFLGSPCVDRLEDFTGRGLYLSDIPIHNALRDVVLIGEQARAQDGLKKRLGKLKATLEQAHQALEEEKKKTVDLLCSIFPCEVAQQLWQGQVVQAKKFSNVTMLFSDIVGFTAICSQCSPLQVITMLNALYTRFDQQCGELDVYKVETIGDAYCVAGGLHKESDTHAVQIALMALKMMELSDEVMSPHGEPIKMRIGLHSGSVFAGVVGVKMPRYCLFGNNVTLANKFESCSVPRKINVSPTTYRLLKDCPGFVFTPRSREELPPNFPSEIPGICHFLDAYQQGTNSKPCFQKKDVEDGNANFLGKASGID
T1 sequence (Q02153 1-619): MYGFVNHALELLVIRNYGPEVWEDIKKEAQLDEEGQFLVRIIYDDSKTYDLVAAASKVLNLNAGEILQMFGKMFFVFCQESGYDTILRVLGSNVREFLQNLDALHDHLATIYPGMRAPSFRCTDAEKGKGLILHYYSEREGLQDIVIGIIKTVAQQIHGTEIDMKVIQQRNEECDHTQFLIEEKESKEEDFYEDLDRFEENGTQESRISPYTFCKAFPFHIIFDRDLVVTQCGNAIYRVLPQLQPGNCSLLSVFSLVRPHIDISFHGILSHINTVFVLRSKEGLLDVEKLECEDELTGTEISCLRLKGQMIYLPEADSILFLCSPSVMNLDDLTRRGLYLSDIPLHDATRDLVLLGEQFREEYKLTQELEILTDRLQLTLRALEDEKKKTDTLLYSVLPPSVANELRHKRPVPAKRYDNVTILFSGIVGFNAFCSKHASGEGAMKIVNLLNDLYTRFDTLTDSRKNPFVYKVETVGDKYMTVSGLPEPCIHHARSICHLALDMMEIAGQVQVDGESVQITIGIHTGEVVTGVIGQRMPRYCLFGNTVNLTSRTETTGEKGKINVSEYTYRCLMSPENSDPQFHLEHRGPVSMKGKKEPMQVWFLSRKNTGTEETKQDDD
The experiment in a line: Cell-based sGC functional assay (CASA assay): cGMP generation in CHO-K1/sGC cells, HTRF detection. Particulars: for Emax: CHO-K1, percent activation relative to standard Compound A in CHO-K1/sGC cells, read-out: % Act.; for EC50: inflection point (IP) of cGMP generation in CHO-K1/sGC cells, 4P fit, activity expressed as percentage of Compound A. In a few lines: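 Stable CHO-K1/sGC cells in EBSS buffer with 5 mM MgCl2, 0.05% BSA and 0.5 mM IBMX were incubated with compound (2.5% DMSO final) ±1 μM DETA-NO for 1 hr at 37° C. cGMP was measured by HTRF. Activation is expressed as % of reference HDA Compound A maximum, with IP and max fold induction from a 4P fit.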

The subject of assay [1] is Spontaneously hypertensive rats (SHR). The experiment in a line: Acute efficacy in spontaneously hypertensive rats (SHR): telemetry blood pressure lowering after a single oral dose. In kind it is in vivo, rat. In a few lines: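 Male SHR carrying aortic telemetry implants (14-day recovery) received a single oral gavage of compound or vehicle (10% transcutol/20% Cremophor/70% water). Conscious blood pressure was sampled 30 s every 10 min and averaged hourly; change was taken against the prior-day vehicle baseline, reported as maximum peak SBP decrease at a given PO dose (mpk).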

As usually defined, the EC50 is the midpoint of the concentration-response curve. Low readings indicate higher potency in that assay, high ones lower potency in that assay.

Consider `CCCc1nc(-c2nc(N)c3c(n2)NC(=O)C3(c2ccc(Cl)cc2)C2CC2)cn2ccnc12` (stereo not drawn) [Example 26B, 4-amino-5-(4-chlorophenyl)-5-cyclopropyl-2-(8-propylimidazo[1,2-a]pyrazin-6-yl)-5H-pyrrolo[2,3-d]pyrimidin-6(7H)-one], for which, on sGC α1/β1 heterodimer, the Emax came to 81% and a half-maximal response (EC50) required 253 nM. In assay [1] (P.O. 3.0 mpk), the “Maximum peak decrease of systolic blood pressure (SBP) in SHR, Cat.” value (shortened to “Maximum peak decrease”) is “B (Category B=SBP in SHRs 20-40 mmHg)”.

For the compound `Nc1nc(-c2cn3ccnc3c(CCC(F)(F)F)n2)nc2c1C(c1ccc(Cl)cn1)(C1CC1)C(=O)N2` (single isomer, unassigned) [Example 331B, 4-amino-5-(5-chloropyridin-2-yl)-5-cyclopropyl-2-(8-(3,3,3-trifluoropropyl)imidazo[1,2-a]pyrazin-6-yl)-5H-pyrrolo[2,3-d]pyrimidin-6(7H)-one], on sGC α1/β1 heterodimer, the Emax was determined as 157% and the midpoint of the response, the EC50, lay at 1310 nM. For the same compound, in assay [1] (P.O. 3.0 mpk), the “Maximum peak decrease” value is recorded as “B (Category B=SBP in SHRs 20-40 mmHg)”.

Take `CC1(c2ncccn2)C(=O)Nc2nc(-c3cn4ccnc4c(CCC(F)(F)C(F)(F)F)n3)nc(N)c21` (stereo not drawn) [Example 220B, 4-amino-5-methyl-2-(8-(3,3,4,4,4-pentafluorobutyl)imidazo [1,2-a]pyrazin-6-yl)-5-(pyrimidin-2-yl)-5H-pyrrolo[2,3-d]pyrimidin-6(7H)-one]: at sGC α1/β1 heterodimer, the Emax came to 100% and the EC50 was found to be 409 nM. In assay [1] (P.O. 3.0 mpk), the “Maximum peak decrease” value was “A (Category A=SBP in SHRs<20 mmHg)”.

Regarding `CCCCc1nc(-c2nc(N)c3c(n2)NC(=O)C3(c2cccc(C(F)(F)F)n2)C2CC2)cn2ccnc12` (single isomer, unassigned) [Example 355A, 4-amino-2-(8-butylimidazo[1,2-a]pyrazin-6-yl)-5-cyclopropyl-5-(6-(trifluoromethyl)pyridin-2-yl)-5H-pyrrolo[2,3-d]pyrimidin-6(7H)-one], on sGC α1/β1 heterodimer, the Emax amounted to 126% and a half-maximal effect (EC50) was put at 202 nM. The “Maximum peak decrease” value in assay [1] (P.O. 1.0 mpk) is “A (Category A=SBP in SHRs<20 mmHg)”.

Consider `CC1(c2ccc(F)cc2F)C(=O)Nc2nc(-c3cn4ccnc4cn3)nc(N)c21` (stereo not drawn) [Example 139A, 4-amino-5-(2,4-difluorophenyl)-2-(imidazo[1,2-a]pyrazin-6-yl)-5-methyl-5H-pyrrolo[2,3-d]pyrimidin-6(7H)-one], for which, at sGC α1/β1 heterodimer, the Emax was found to be 118% and a half-maximal response (EC50) required 222 nM. In assay [1] (P.O. 3.0 mpk), the “Maximum peak decrease” value is “C (Category C=SBP in SHRs>40 mmHg)”.

Turning to `CC1(c2ccc(F)c(Cl)c2)C(=O)Nc2nc(-c3cn4ccnc4c(CCC(F)(F)F)n3)nc(N)c21` (stereo not drawn) [Example 193B, 4-amino-5-(3-chloro-4-fluorophenyl)-5-methyl-2-(8-(3,3,3-trifluoropropyl)imidazo[1,2-a]pyrazin-6-yl)-5H-pyrrolo[2,3-d]pyrimidin-6(7H)-one], on sGC α1/β1 heterodimer, the Emax turned out to be 111% and a half-maximal effect (EC50) was put at 355 nM. Further, the “Maximum peak decrease” value in assay [1] (P.O. 3.0 mpk) is given as “B (Category B=SBP in SHRs 20-40 mmHg)”.

`Nc1nc(-c2cn3ccnc3c(CCC(F)(F)C(F)(F)F)n2)nc2c1C(c1ccc(Cl)cn1)(C1CC1)C(=O)N2` (stereo not drawn) [Example 245B, 4-amino-5-(5-chloropyridin-2-yl)-5-cyclopropyl-2-(8-(3,3,4,4,4-pentafluorobutyl)imidazo [1,2-a]pyrazin-6-yl)-5H-pyrrolo[2,3-d]pyrimidin-6(7H)-one]: at sGC α1/β1 heterodimer, the Emax stood at 118% and it took 77 nM to reach a half-maximal effect (EC50). Further, the “Maximum peak decrease” value in assay [1] (P.O. 1.0 mpk) is “C (Category C=SBP in SHRs>40 mmHg)”.

For the compound `CC1(c2ccc(C(F)(F)F)cn2)C(=O)Nc2nc(-c3cn4ccnc4c(CCCC(F)(F)F)n3)nc(N)c21` (stereo not drawn) [Example 213B, 4-amino-5-methyl-2-(8-(4,4,4-trifluorobutyl)imidazo[1,2-a]pyrazin-6-yl)-5-(5-(trifluoromethyl)pyridin-2-yl)-5H-pyrrolo[2,3-d]pyrimidin-6(7H)-one], at sGC α1/β1 heterodimer, the Emax came to 89% and the EC50 is 100 nM. Also, the “Maximum peak decrease” value in assay [1] (P.O. 0.3 mpk) is “B (Category B=SBP in SHRs 20-40 mmHg)”.

With `CCc1nnc(C2(C3CC3)C(=O)Nc3nc(-c4cn5ccnc5c(CCC(F)(F)C(F)(F)F)n4)nc(N)c32)s1` (single isomer, unassigned) [Example 30A, 4-Amino-5-cyclopropyl-5-(5-ethyl-1,3,4-thiadiazol-2-yl)-2-(8-(3,3,4,4,4-pentafluorobutyl)imidazo[1,2-a]pyrazin-6-yl)-5H-pyrrolo[2,3-d]pyrimidin-6(7H)-one], on sGC α1/β1 heterodimer, the Emax was 113% and the EC50 came to 358 nM. Besides, the “Maximum peak decrease” value in assay [1] (P.O. 3.0 mpk) is reported as “C (Category C=SBP in SHRs>40 mmHg)”.

In the case of `CNc1nc(-c2cn3ccnc3c(CCC(F)(F)C(F)(F)F)n2)nc2c1C(C)(c1ccc(F)cn1)C(=O)N2` (stereo not drawn) [Example 290B, 5-(5-fluoropyridin-2-yl)-5-methyl-4-(methylamino)-2-(8-(3,3,4,4,4-pentafluorobutyl)imidazo[1,2-a]pyrazin-6-yl)-5H-pyrrolo[2,3-d]pyrimidin-6(7H)-one], on sGC α1/β1 heterodimer, the Emax was determined as 106% and the response was half-maximal at 280 nM (EC50). Also, the “Maximum peak decrease” value in assay [1] (P.O. 3.0 mpk) is reported as “B (Category B=SBP in SHRs 20-40 mmHg)”.
